Source: PMC3720659, “Integrated Analysis of Drug-Induced Gene Expression Profiles Predicts Novel hERG Inhibitors” (PLoS ONE, 2013)

target: T1, hERG channel (Homo sapiens, UniProt Q12809); experiment: not given; details: not given
T1 sequence (Q12809 whole entry): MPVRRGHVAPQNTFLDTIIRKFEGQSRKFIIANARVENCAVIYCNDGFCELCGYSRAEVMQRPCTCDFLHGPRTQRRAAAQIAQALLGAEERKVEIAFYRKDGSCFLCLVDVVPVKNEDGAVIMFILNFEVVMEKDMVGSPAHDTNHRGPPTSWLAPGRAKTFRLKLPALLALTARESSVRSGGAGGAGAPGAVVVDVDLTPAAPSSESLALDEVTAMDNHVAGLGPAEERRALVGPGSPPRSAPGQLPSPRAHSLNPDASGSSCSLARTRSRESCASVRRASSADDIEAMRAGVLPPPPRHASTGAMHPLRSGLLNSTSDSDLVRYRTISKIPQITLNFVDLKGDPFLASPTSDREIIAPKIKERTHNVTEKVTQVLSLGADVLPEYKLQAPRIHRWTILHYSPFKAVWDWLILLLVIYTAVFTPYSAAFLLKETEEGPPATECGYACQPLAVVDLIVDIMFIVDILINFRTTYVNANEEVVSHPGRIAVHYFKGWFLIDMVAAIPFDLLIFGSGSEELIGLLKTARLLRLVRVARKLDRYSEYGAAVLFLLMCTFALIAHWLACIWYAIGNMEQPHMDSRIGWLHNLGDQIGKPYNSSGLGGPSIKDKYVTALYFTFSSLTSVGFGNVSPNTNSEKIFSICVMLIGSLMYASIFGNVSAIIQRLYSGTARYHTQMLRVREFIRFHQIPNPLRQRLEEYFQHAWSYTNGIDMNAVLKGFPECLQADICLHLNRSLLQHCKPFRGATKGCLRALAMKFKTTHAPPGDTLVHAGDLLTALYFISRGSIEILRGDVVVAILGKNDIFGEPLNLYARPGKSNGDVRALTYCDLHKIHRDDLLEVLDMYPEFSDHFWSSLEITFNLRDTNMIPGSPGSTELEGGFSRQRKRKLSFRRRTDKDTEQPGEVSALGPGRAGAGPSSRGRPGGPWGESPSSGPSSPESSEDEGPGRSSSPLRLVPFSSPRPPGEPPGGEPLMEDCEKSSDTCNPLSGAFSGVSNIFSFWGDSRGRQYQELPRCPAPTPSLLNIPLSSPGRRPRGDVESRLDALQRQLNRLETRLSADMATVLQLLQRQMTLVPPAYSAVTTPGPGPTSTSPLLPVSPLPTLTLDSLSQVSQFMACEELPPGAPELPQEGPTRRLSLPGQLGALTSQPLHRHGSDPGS

Compound	Behaviour during hERG electrophysiology recording
CCCCC(CC)CN1CN(CC(CC)CCCC)CC(C)(N)C1 (stereo not shown) [Hexetidine]	appears to disrupt the membrane seal during recording

system: not given; experiment: not given; details: drug on LQT Drug List; the Cell Line (HL60, MCF7, PC3) is the cell line of the expression profile; cited from earlier work

Compound	Annotation (LQT Drug)
OCCN1CCN(CCCN2c3ccccc3Sc3ccc(C(F)(F)F)cc32)CC1 [fluphenazine]	LQT Drug
COC1=C2C[C@@H](C)C[C@H](OC)[C@H](O)[C@@H](C)/C=C(\C)[C@H](OC(N)=O)[C@@H](OC)/C=C\C=C(/C)C(=O)NC(=CC1=O)C2=O [geldanamycin]	LQT Drug
CC1Cc2ccccc2N1NC(=O)c1ccc(Cl)c(S(N)(=O)=O)c1 (stereo not shown) [indapamide]	LQT Drug
CC(=O)N1CCN(c2ccc(OCC3COC(Cn4ccnc4)(c4ccc(Cl)cc4Cl)O3)cc2)CC1 (stereo not shown) [ketoconazole]	LQT Drug
CNCCCC12CCC(c3ccccc31)c1ccccc12 [maprotiline]	LQT Drug
Cc1cccc(C)c1OCC(C)N (stereo not shown) [mexiletine]	LQT Drug
CNCCC=C1c2ccccc2CCc2ccccc21 [nortriptyline]	LQT Drug
CC1COc2c(N3CCN(C)CC3)c(F)cc3c(=O)c(C(=O)O)cn1c23 (stereo not shown) [ofloxacin]	LQT Drug
CC(Cc1ccccc1)NCCC(c1ccccc1)c1ccccc1 (stereo not shown) [prenylamine]	LQT Drug

same assay, conditions: on LQT Drug List; the Cell Line (HL60, MCF7, PC3) names the expression profile; cited from earlier work

Compound	Annotation (LQT Drug)
Clc1ccc2c(c1)C(N1CCNCC1)=Nc1ccccc1O2 [Amoxapine, reference compound]	LQT Drug
COc1cc2nc(N(C)CCCNC(=O)C3CCCO3)nc(N)c2cc1OC (stereo not shown) [alfuzosin]	LQT Drug
NC12CC3CC(CC(C3)C1)C2 [amantadine]	LQT Drug
CN(C)CCC=C1c2ccccc2CCc2ccccc21 [amitriptyline]	LQT Drug
CCN(CC)CCCC(C)Nc1ccnc2cc(Cl)ccc12 (stereo not shown) [chloroquine]	LQT Drug
CNCCCN1c2ccccc2CCc2ccccc21 [desipramine]	LQT Drug
CC(CCc1ccc(O)cc1)NCCc1ccc(O)c(O)c1 (stereo not shown) [dobutamine]	LQT Drug

same assay, conditions: previous literature; not in the LQT drug lists used; cited from earlier work

Compound	Association with drug-induced LQT
CC(NCCC(c1ccccc1)c1ccccc1)c1ccccc1 (stereo not shown) [Fendiline, reference compound]	drug-induced LQT

system: recombinantly expressed hERG channels; experiment: not given; details: cited from earlier work

Compound	Inhibition of hERG channels recombinantly expressed in cell lines
OC(c1cc(C(F)(F)F)nc2c(C(F)(F)F)cccc12)C1CCCCN1 (stereo not shown) [Mefloquine, reference compound]	inhibit
Clc1ccc(COC(Cn2ccnc2)c2ccc(Cl)cc2Cl)c(Cl)c1 (stereo not shown) [Miconazole, reference compound]	inhibit

same assay, conditions: read-out: IC50 for inhibition of the current of recombinantly expressed hERG channels; cited from earlier work

Compound	IC50 [µM]
CCN(CC)CCOc1ccc(C(=C(Cl)c2ccccc2)c2ccccc2)cc1 [Clomiphene]	0.18

target: T1, hERG channel; experiment: cell-based; details: not given

Compound	IC50 [µM]
Clc1ccc(C(OCCN2CCCCC2)c2ccccc2)cc1 (stereo not shown) [Cloperastine]	0.36 ± 0.05
CC(NCCC(c1ccccc1)c1ccccc1)c1ccccc1 (stereo not shown) [Fendiline, reference compound]	2.6 ± 0.1

system: hERG current; experiment: not given; details: annotation of the drug; Cell Line (HL60, MCF7, PC3) is the cell line of the drug-induced expression profile, not of the hERG assay; ref hERGcentral; cited from earlier work

Compound	Annotation (hERG inhibition class, Active/Inactive by IC50)
O=C1CCC(N2C(=O)c3ccccc3C2=O)C(=O)N1 (stereo not shown) [thalidomide]	Inactive
COc1c(O[C@@H]2O[C@H](CO)[C@@H](O)[C@H](O)[C@H]2O)cc2c(c1OC)-c1ccc(SC)c(=O)cc1[C@@H](NC(C)=O)CC2 [thiocolchicoside]	Inactive
Nc1nc2c(ncn2[C@@H]2O[C@H](CO)[C@@H](O)[C@H]2O)c(=S)[nH]1 [thioguanosine]	Inactive
CC(C(=O)O)c1ccc(C(=O)c2ccccc2)s1 (stereo not shown) [tiaprofenic acid]	Inactive
Cc1ccc(S(=O)(=O)NC(=O)NN2CCCCCC2)cc1 [tolazamide]	Inactive
c1ccc(CC2=NCCN2)cc1 [tolazoline]	Inactive
CCCCNC(=O)NS(=O)(=O)c1ccc(C)cc1 [tolbutamide]	Inactive
Cc1c(Cl)cccc1Nc1ccccc1C(=O)O [tolfenamic acid]	Inactive
Cc1cccc(N(C)C(=S)Oc2ccc3ccccc3c2)c1 [tolnaftate]	Inactive
CCCCNc1c(C(=O)OCC)c(C)nc2c1cnn2CC [tracazolate]	Inactive
O=c1[nH]c(=O)n([C@H]2C[C@H](O)[C@@H](CO)O2)cc1C(F)(F)F [trifluridine]	Inactive
COc1cc(Cc2cnc(N)nc2N)cc(OC)c1OC [trimethoprim]	Inactive
Cc1ccc(/C(=C\CN2CCCC2)c2ccccn2)cc1 [triprolidine]	Active
Nc1ncnc2c1ncn2[C@@H]1O[C@H](CO)[C@@H](O)[C@@H]1O [vidarabine]	Inactive
COC(=O)[C@@H]1[C@H]2C[C@H]3c4[nH]c5ccccc5c4CCN3C[C@@H]2CC[C@@H]1O [yohimbine]	Active
OCCN1CCN(CC/C=C2/c3ccccc3Sc3ccc(Cl)cc32)CC1 [zuclopenthixol]	Active
rifabutin	Inactive
triamcinolone	Inactive

same assay, conditions: cited from earlier work

Compound	Annotation (hERG Active / Inactive)	hERG inhibition call in the high-throughput electrophysiology assay	Annotation (hERG inhibition class, Active/Inactive by IC50)
OC(c1cc(C(F)(F)F)nc2c(C(F)(F)F)cccc12)C1CCCCN1 (stereo not shown) [Mefloquine, reference compound]	Inactive	inactive	–
Cc1ccc(C(=O)c2ccc(CC(=O)O)n2C)cc1 [tolmetin]	–	–	Inactive
Nc1nc(N)c2nc(-c3ccccc3)c(N)nc2n1 [triamterene]	–	–	Inactive
atovaquone	Inactive	–	–
diethylstilbestrol	Inactive	–	–

same assay, conditions: hERG annotation of the drug; the Cell Line (HL60, MCF7, PC3) names the expression profile, not the hERG test; cited from earlier work

Compound	Annotation (hERG Active / Inactive)
adenosine phosphate	Inactive
diphenylpyraline	Inactive
doxycycline	Inactive
estrone	Inactive
felodipine	Inactive

same assay, conditions: hERG inhibition annotation of the drug; the Cell Line (HL60, MCF7, PC3) is the cell line of the expression profile, not of the hERG test; cited from earlier work

Compound	Annotation (hERG Active / Inactive)
Clc1ccc(COC(Cn2ccnc2)c2ccc(Cl)cc2Cl)c(Cl)c1 (stereo not shown) [Miconazole, reference compound]	Inactive
fluticasone	Inactive
hydrocortisone	Inactive
isometheptene	Inactive
meglumine	Inactive
minocycline	Inactive
mometasone	Inactive
naloxone	Active
nitrendipine	Inactive
prednisolone	Inactive

same assay, conditions: inhibitor means 50% or more decrease of hERG current at 10 µM; acute recording; cited from earlier work

Compound	hERG inhibition call in the high-throughput electrophysiology assay
Clc1ccc2c(c1)C(N1CCNCC1)=Nc1ccccc1O2 [Amoxapine, reference compound]	negatives
Clc1ccc(COC(Cn2ccnc2)c2ccc(Cl)cc2Cl)c(Cl)c1 (stereo not shown) [Miconazole, reference compound]	inactive
